Laboratory results taken from paper PMC11631053, “A receptor-based assay to study the sweet and bitter tastes of sweeteners and binary sweet blends: the SWEET project” (Chemical Senses, 2024).
Marks after values point to notes of the source that are not given here.

How the values were obtained:
[1] = test system: TAS2R8; conditions: ref Meyerhof et al. 2010; cited from earlier work
[2] = test system: TAS2R1; conditions: ref Meyerhof et al. 2010; cited from earlier work
[3] = target: T1, TAS1R2/TAS1R3 (Homo sapiens, UniProt Q7RTX0+Q8TE23); assay: Calcium mobilization assay, HEK293T-Gα16gust44 cells expressing the sweet taste receptor; conditions: sweet compound alone
T1 sequence (Q8TE23 20-839): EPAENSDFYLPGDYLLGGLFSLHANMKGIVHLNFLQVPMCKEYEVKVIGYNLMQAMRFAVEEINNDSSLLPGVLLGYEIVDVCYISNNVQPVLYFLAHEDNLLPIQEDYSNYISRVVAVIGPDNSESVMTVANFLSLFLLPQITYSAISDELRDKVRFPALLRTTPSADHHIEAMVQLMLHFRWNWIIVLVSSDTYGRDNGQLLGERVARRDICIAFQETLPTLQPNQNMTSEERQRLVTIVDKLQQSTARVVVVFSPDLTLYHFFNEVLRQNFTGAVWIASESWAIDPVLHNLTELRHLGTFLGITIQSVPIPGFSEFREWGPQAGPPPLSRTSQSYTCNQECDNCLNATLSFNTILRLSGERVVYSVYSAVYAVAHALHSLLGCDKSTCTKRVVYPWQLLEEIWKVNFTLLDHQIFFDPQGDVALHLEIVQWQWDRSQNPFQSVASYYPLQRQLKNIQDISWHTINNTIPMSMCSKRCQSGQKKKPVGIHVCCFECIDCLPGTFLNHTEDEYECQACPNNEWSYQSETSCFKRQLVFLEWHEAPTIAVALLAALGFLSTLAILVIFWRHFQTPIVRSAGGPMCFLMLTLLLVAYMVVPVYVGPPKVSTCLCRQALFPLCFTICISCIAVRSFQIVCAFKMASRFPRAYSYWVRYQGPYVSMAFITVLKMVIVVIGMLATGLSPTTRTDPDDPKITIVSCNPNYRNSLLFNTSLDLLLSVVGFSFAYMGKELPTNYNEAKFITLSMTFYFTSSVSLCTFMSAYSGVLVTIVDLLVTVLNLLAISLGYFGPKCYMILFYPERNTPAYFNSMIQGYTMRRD
T1 sequence (Q7RTX0 21-852): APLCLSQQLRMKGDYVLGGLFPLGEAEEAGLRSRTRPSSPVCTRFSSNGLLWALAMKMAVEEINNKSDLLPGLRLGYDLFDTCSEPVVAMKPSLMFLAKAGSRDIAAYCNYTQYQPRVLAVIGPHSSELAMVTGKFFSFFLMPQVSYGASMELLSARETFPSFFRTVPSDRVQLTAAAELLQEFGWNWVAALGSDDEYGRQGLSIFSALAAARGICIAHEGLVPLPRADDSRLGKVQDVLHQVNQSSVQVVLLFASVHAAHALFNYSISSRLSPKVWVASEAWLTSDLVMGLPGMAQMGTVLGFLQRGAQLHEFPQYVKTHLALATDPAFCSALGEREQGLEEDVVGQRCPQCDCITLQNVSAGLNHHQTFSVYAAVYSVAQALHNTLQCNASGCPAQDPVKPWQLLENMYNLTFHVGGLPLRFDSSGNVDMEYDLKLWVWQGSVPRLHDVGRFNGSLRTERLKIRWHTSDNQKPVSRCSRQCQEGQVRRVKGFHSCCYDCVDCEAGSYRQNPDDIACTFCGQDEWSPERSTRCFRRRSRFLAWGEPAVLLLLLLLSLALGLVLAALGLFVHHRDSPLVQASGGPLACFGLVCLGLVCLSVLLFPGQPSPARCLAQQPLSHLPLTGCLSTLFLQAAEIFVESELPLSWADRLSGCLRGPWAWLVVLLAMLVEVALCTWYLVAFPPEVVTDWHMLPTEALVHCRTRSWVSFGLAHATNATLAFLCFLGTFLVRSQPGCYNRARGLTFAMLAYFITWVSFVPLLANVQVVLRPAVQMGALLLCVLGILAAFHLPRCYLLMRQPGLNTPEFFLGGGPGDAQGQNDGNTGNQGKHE
Method: Different concentration ranges were tested depending on the injected sweet compound. […] All of the concentration-receptor combinations were measured in triplicate, and each experiment was repeated at least 3 times. The Ca^2+ change was expressed as a fractional change in fluorescent light intensity: ΔF/F = (F − F0)/F0, where F was the fluorescent light intensity at each point, and F0 was the value of fluorescent light emitted prior to stimulus application. To calculate dose–response relationships, the changes in fluorescence upon stimulus application were averaged, mock-subtracted and baseline-corrected. The resulting obtained dose–response data were adjusted by using a 4-parameter logistic equation.

[4] = sucrose = 1; ref Schiffman and Gatlin (1993); cited from earlier work

## O=S(=O)(O)NC1CCCCC1 [cyclamate]
[1]
  concentration at which activation of TAS2R8 occurs: approximately 30 mM
[2]
  concentration at which activation of TAS2R1 occurs: approximately 30 mM

## OC[C@H]1O[C@@](CO)(O[C@H]2O[C@H](CO)[C@@H](O)[C@H](O)[C@H]2O)[C@@H](O)[C@@H]1O [Sucrose, reference compound]
[3]; maximal signal amplitude
  Max ΔF/F0: 0.10 ± 0.03
[4]
  Sweetness potency: 1^g

B1: thaumatin (protein)
chain: ATFEIVNRCSYTVWAAASKGDAALDAGGRQLNSGESWTINVEPGTNGGKIWARTDCYFDDSGSGICKTGDCGGLLRCKRFGRPPTTLAEFSLNQYGKDYIDISNIKGFNVPMDFSPTTRGCRGVRCAADIVGQCPAKLKAPGGGCNDACTVFQTSEYCCTTGKCGPTEYSRFFKRLCPDAFSYVLDKPTTVTCPGSSNYRVTFCPTA
modifications: 8 disulfide bonds; natural (E957) thaumatin is a mixture of mainly thaumatin I and II
[3]; read-out: EC50 value
  EC50: 12 ± 2 µM
